US4337265A, “Cyclohepta[b]pyrrole derivatives” (Ayerst, McKenna & Harrison Inc., priority 1981, dated 1982)

Legend:
[1] = molecular target: T1, aldose reductase (Bos taurus, UniProt P16116); experiment: in vitro aldose reductase inhibition (modified Hayman and Kinoshita procedure; enzyme from bovine lens); type: biochemical; settings: read-out: % Inhibition At Different Molar Concentrations (in vitro); for inhibition at 10 µM: molar concentration 10^-5; for inhibition at 1 µM: molar concentration 10^-6; for inhibition at 0.1 µM: molar concentration 10^-7
T1 construct: preparation of the enzyme from bovine lens; from tissue; host or cells: bovine lens
Procedure: In the present case the procedure of Hayman and Kinoshita is modified in that the final chromatography step is omitted in the preparation of the enzyme from bovine lens. The following results were obtained when the foregoing listed compounds of formula I were evaluated in the above in vitro test.

[2] = test system: aldose reductase; settings: literature report; cited from earlier work
[3] = hygroscopicity of the salt; type: physicochemical; settings: disodium salt

inhibition at 10 µM [1] | inhibition at 1 µM [1] | inhibition at 0.1 µM [1] | hygroscopicity [3] | SMILES | aldose reductase inhibition (in words) [2]
93% | 85% | 47% |  | O=C(O)Cn1c2cccccc-2c(C(=O)O)c1=S [Example 5, 3-Carboxy-1,2-dihydro-2-thioxocyclohepta[b]pyrrole-1-acetic Acid] | 
80% | 37% | 13% |  | O=C(O)C[n+]1cc(C(=O)O)c2cccccc1-2 [3-Carboxy-1-(carboxymethyl)-cyclohepta[b]pyrrolium Chloride] | 
80% | 45% | 9% |  | O=C(O)Cn1c2cccccc-2cc1=O [Example 3, 1,2-Dihydro-2-oxocyclohepta[b]pyrrole-1-acetic Acid] | 
73% | 26% |  |  | CCOC(=O)c1c2cccccc-2n(CC(=O)O)c1=O [Example 4, 3-(Ethoxycarbonyl)-1,2-dihydro-2-oxocyclohepta[b]pyrrole-1-acetic Acid] | 
60% | 19% |  |  | CCc1c2cccccc-2n(CC(=O)O)c1=O [Example 8, 3-Ethyl-1,2-dihydro-2-oxocyclohepta[b]pyrrole-1-acetic Acid] | 
85% | 78% | 36% |  | O=C(O)Cn1c2ccc(Cl)ccc-2c(C(=O)O)c1=O [Example 9, 3-Carboxy-6-chloro-1,2-dihydro-2-oxocyclohepta[b]pyrrole-1-acetic Acid] | 
 |  |  |  | O=C1NC(=O)[C@@]2(CCOc3ccc(F)cc32)N1 [sorbinil, (S)-6-Fluoro-2,3-dihydrospiro(4H-1-benzopyran-4,4'-imidazolidine)-2',5'-dione] | aldose reductase inhibiting properties
73% | 28% | 7% |  | NC(=O)c1c2cccccc-2n(CC(=O)O)c1=O [Example 13, 3-(Aminocarbonyl)-1,2-dihydro-2-oxocyclohepta[b]pyrrole-1-acetic Acid] | 
88% | 82% | 44% |  | O=C(O)Cn1c2cccccc-2c(C(=O)O)c1=O [Example 2, 3-Carboxy-1,2-dihydro-2-oxocyclohepta[b]pyrrole-1-acetic Acid] | 
 |  |  |  | O=C(O)CN1C(=O)c2cccc3cccc(c23)C1=O [1,3-Dioxo-1H-benz[de]isoquinoline-2(3H)-acetic acid] | effective inhibitor of aldose reductase
76% | 34% | 9% |  | CCOC(=O)c1c2ccc(Cl)ccc-2n(CC(=O)O)c1=O [Example 10, 6-Chloro-3-(ethoxycarbonyl)-1,2-dihydro-2-oxocyclohepta[b]pyrrole-1-acetic Acid] | 
85% | 52% | 11% |  | CC(=O)c1c2ccc(Cl)ccc-2n(CC(=O)O)c1=O [Example 11, 3-Acetyl-6-chloro-1,2-dihydro-2-oxocyclohepta[b]pyrrole-1-acetic Acid] | 
75% | 44% | 9% |  | CC(C)(C)C(=O)OCOC(=O)Cn1c2cccccc-2c(C(=O)OCOC(=O)C(C)(C)C)c1=O [Example 6, 1,2-Dihydro-3-[(2,2-dimethyl-1-oxopropoxy)methoxycarbonyl]-2-oxo-cyclohepta[b]pyrrole-1-acetic Acid (2,2-Dimethyl-1-oxopropoxy)methyl Ester] | 
 |  |  | hydroscopic | CN(CC(=O)O)C(=O)c1c2ccc(Cl)ccc-2n(CC(=O)O)c1=O [Example 15, 6-Chloro-3-[(N-carboxymethyl-N-methyl)amino]carbonyl-1,2-dihydro-2-oxocyclohepta[b]pyrrole-1-acetic Acid] | 
76% | 26% | 3% |  | CC(=O)c1c2cccccc-2n(CC(=O)O)c1=O [Example 7, 3-Acetyl-1,2-dihydro-2-oxocyclohepta[b]pyrrole-1-acetic Acid] | 
88% | 82% | 48% |  | N#Cc1c2cccccc-2n(CC(=O)O)c1=O [Example 12, 3-Cyano-1,2-dihydro-2-oxocyclohepta[b]pyrrole-1-acetic Acid] | 
